Data published in ChEMBL document CHEMBL1134495, “3D-QSAR model of flavonoids binding at benzodiazepine site in GABAA receptors” (J Med Chem, 2001).

These compounds were tested against GABA-A receptor; anion channel (assay: Binding affinity towards benzodiazepine site in GABAA receptor).
Format: protein-complex assay

Row | SMILES | -Log Ki
1 | O=c1cc(-c2cccc([N+](=O)[O-])c2)oc2ccc([N+](=O)[O-])cc12 | 7.92
2 | O=c1cc(-c2cccc(F)c2)oc2ccc(Br)cc12 | 7.38
3 | O=c1cc(-c2ccc(F)cc2)oc2ccccc12 | 5.44
4 | O=c1cc(-c2cccc([N+](=O)[O-])c2)oc2ccc(Br)cc12 | 9
5 | O=c1cc(-c2cccc(Br)c2)oc2ccc(Cl)cc12 | 7.64
6 | O=c1cc(-c2cccc(Br)c2)oc2ccc(F)cc12 | 6.63
7 | O=c1cc(-c2cccc(Br)c2)oc2ccccc12 | 6.38
8 | O=c1cc(-c2cccc(F)c2)oc2ccc(F)cc12 | 6.04
9 | O=c1cc(-c2ccccc2)oc2c(Br)c(O)c(Br)c(O)c12 | 6.15
10 | O=c1cc(-c2ccccc2F)oc2ccc(Br)cc12 | 6.42
11 | O=c1cc(-c2ccccc2[N+](=O)[O-])oc2ccc(Br)cc12 | 6.68
12 | O=c1cc(-c2cccc(O)c2)oc2ccc(Br)cc12 | 6.22
13 | O=c1cc(-c2cccc(Cl)c2)oc2ccc(Br)cc12 | 7.77
14 | O=c1cc(-c2ccc(F)cc2)oc2ccc(Br)cc12 | 6.94
15 | O=c1cc(-c2ccccc2F)oc2cc(O)cc(O)c12 | 5.1
16 | O=c1cc(-c2ccccc2)oc2ccc(Br)cc12 [6-BROMOFLAVONE] | 7.15
17 | O=c1cc(-c2ccc(O)cc2)oc2cc(O)cc(O)c12 [APIGENIN] | 5.52
18 | O=C(O)[C@H]1O[C@@H](Oc2cc3oc(-c4ccccc4)cc(=O)c3c(O)c2O)[C@H](O)[C@@H](O)[C@@H]1O [BAICALIN] | 4.11
19 | O=c1cc(-c2ccccc2)oc2cc(O)cc(O)c12 [CHRYSIN] | 5.52
20 | O=c1cc(-c2ccccc2)oc2ccccc12 [FLAVONE] | 6
21 | COc1c(O)cc2oc(-c3ccc(O)cc3)cc(=O)c2c1O [HISPIDULIN] | 6
22 | O=c1cc(-c2ccc(O)cc2)oc2cc(O)c(O)c(O)c12 [SCUTELLAREIN] | 4.92

The remaining lines, values ahead:

Row | -Log Ki | SMILES
23 | 5.68 | COc1ccc(-c2cc(=O)c3cc(Br)ccc3o2)cc1
24 | 6.7 | O=c1cc(-c2cccc(Cl)c2)oc2ccc(F)cc12
25 | 7.6 | O=c1cc(-c2ccc(Br)cc2)oc2ccc([N+](=O)[O-])cc12
26 | 5.9 | COc1ccc(-c2cc(=O)c3cc(Cl)ccc3o2)cc1
27 | 5.45 | O=c1cc(-c2cccc(F)c2)oc2ccccc12
28 | 6.74 | O=c1cc(-c2ccc(F)cc2)oc2ccc(Cl)cc12
29 | 7.72 | O=c1cc(-c2cccc(Br)c2)oc2ccc(Br)cc12
30 | 5.6 | O=c1cc(-c2ccc(F)cc2)oc2ccc(F)cc12
31 | 6.7 | O=c1cc(-c2ccc([N+](=O)[O-])cc2)oc2ccc(Br)cc12
32 | 6.93 | O=c1cc(-c2cccc(F)c2)oc2ccc(Cl)cc12
33 | 6.74 | O=c1cc(-c2cccc([N+](=O)[O-])c2)oc2ccc(F)cc12
34 | 6.07 | O=c1cc(-c2cccc(O)c2)oc2ccc(Cl)cc12
35 | 6.38 | O=c1cc(-c2ccccc2F)oc2ccc(Cl)cc12
36 | 6.21 | O=c1cc(-c2cccc(Cl)c2)oc2ccccc12
37 | 7.64 | O=c1cc(-c2cccc(Cl)c2)oc2ccc(Cl)cc12
38 | 5.1 | O=c1cc(-c2ccccc2Cl)oc2cc(O)cc(O)c12
39 | 5.6 | O=c1cc(-c2cccc(O)c2)oc2ccc(F)cc12
40 | 8.1 | O=c1cc(-c2cccc([N+](=O)[O-])c2)oc2ccc(Cl)cc12
41 | 5.25 | O=c1cc(-c2ccccc2)oc2cc(O)c(O)c(O)c12 [BAICALEIN]
42 | 5.69 | COc1c(O)cc(O)c2c(=O)cc(-c3ccccc3)oc12 [WOGONIN]
